Test results published in US20260078099A1, “COMPOUND, PREPARATION METHOD THEREOF, AND LIPID NANOPARTICLE AND PHARMACEUTICAL COMPOSITION” (priority 2023, published 2026).

Legend:
[1] = LNP encapsulation efficiency (Quant-it Ribogreen); assay type: physicochemical; conditions: mRNA LNP, cationic lipid/DSPC/cholesterol/PEG-lipid 50:10:38.5:1.5
Source text: Encapsulation Efficiency: The encapsulation efficiency of a therapeutic and/or prophylactic agent refers to the amount of the therapeutic and/or prophylactic agent encapsulated within or otherwise associated with the nanoparticle composition relative to the initial amount provided during preparation. Encapsulation efficiency is desirably high (such as close to 100%). Encapsulation efficiency can be measured, for example, by comparing the amount of therapeutic and/or prophylactic agent in a solution containing the nanoparticle composition before and after disruption of the nanoparticle composition using one or more organic solvents or detergents. Fluorescence can be used to measure the amount of free therapeutic and/or prophylactic agent (e.g., RNA) in solution. For the nanoparticle compositions described herein, the encapsulation efficiency of the therapeutic and/or prophylactic agent may be at least 50%, such as 50%, 55%, 60%, 65%, 70%, 75%, 80%, 85%, 90%, 91%, 92%, 93%, 94%, 95%, 96%, 97%, 98%, 99%, or 100%. In some embodiments, the encapsulation efficiency may be at least 80%. In certain embodiments, the encapsulation efficiency may be at least 90%.
(§1) In summary, the cationic lipid described herein, DSPC, cholesterol, and PEG-lipid were dissolved in ethanol at a molar ratio of 50:10:38.5:1.5 and diluted in 10 mM to 50 mM citrate buffer at pH 4 with mRNA. Using a microfluidic device, the lipid ethanol solution was mixed with mRNA aqueous solution at a volume ratio of 1:3 and a total flow rate ranging from 6-30 mL/min, preparing LNPs with a total lipid to mRNA weight ratio of approximately 10:1 to 30:1. Ethanol was removed by dialysis and replaced with PBS. Finally, the lipid nanoparticles were filtered through a 0.22 μm sterile filter.
(§2) The size of lipid nanoparticles was measured by dynamic light scattering using a Malvern Zetasizer Nano ZS (Malvern, UK) with a 90° scattering detection mode. The encapsulation efficiency of lipid nanoparticles was determined using the Quant-it Ribogreen RNA Quantitation Kit (Thermo Fisher Scientific, UK) according to the manufacturer's instructions. The apparent pKa of LNP formulations correlates with the delivery efficiency of nucleic acids by LNPs in vivo. The apparent pKa ranges from approximately 5 to 7. An analysis based on fluorescence from 2-(p-tolylamino)-6-naphthalenesulfonic acid (TNS) was used to determine the apparent pKa of formulations. As described above, LNP formulations containing cationic lipid/DSPC/cholesterol/DMG-PEG (50/10/38.5/1.5 mol %) in PBS were prepared. A 300 μM stock solution of TNS in distilled water was prepared. LNP formulations were diluted to 0.1 mg/mL total lipid in 3 mL of buffer solution containing 50 mM sodium citrate, 50 mM sodium phosphate, 50 mM sodium borate, and 30 mM sodium chloride (pH ranged from 3 to 9). […] S-shaped curve best-fit analysis was applied to the fluorescence data, and the pKa value was measured as the pH value producing half-maximal fluorescence intensity.

[2] = LNP size and PDI by dynamic light scattering; assay type: physicochemical; conditions: mRNA LNP, cationic lipid/DSPC/cholesterol/PEG-lipid 50:10:38.5:1.5
Description: as §1, §2

LNP zeta potential = assay type: physicochemical; conditions: mRNA LNP
Source text: Nanoparticle compositions can be characterized by various methods. For example, the morphology and size distribution of nanoparticle compositions can be examined using microscopy (e.g., transmission electron microscopy or scanning electron microscopy). The zeta potential can be measured using dynamic light scattering or potentiometric titration. Dynamic light scattering can also be used to determine particle size. Instruments such as the Zetasizer Nano ZS (Malvern Instruments Ltd., Malvern, Worcestershire, UK) can also be used to measure multiple characteristics of nanoparticle compositions, such as particle size, polydispersity index, and zeta potential.
[…]: The zeta potential of the nanoparticle composition can indicate the electrophoretic potential of the composition. For example, zeta potential may describe the surface charge of the nanoparticle composition. Nanoparticle compositions with relatively low positive or negative charges are generally desirable, as materials with higher charges may interact undesirably with cells, tissues, and other components in the body. In some embodiments, the zeta potential of the nanoparticle composition may be about −10 mV to about +20 mV, about −10 mV to about +15 mV, about −10 mV to about +10 mV, about −10 mV to about +5 mV, about −10 mV to about 0 mV, about −10 mV to about −5 mV, about −5 mV to about +20 mV, about −5 mV to about +15 mV, about −5 mV to about +10 mV, about −5 mV to about +5 mV, about −5 mV to about 0 mV, about 0 mV to about +20 mV, about 0 mV to about +15 mV, about 0 mV to about +10 mV, about 0 mV to about +5 mV, about +5 mV to about +20 mV, about +5 mV to about +15 mV, or about +5 mV to about +10 mV.

mice = test: Bioluminescent study, intramuscular injection of F-luc mRNA LNPs; assay type: in vivo; conditions: F-luc luminescence flux normalized to MC3; 0.25 mg/kg intramuscular, mice n=3, 6-hour time point
Description: The efficacy of nanoparticle compositions was evaluated using bioluminescent studies. A dose of 0.25 mg/kg (mpk) of the formulation was administered to mice (n=3) via intramuscular injection, and bioluminescence was measured at a 6-hour time point. The test lipid nanoparticles from the MC3 formulation were evaluated, and in some cases, controls (e.g., PBS controls) were assessed for comparison.
The characteristics of the test lipid nanoparticles measured from the test groups, including F-luc luminescence intensity, are listed in the table below.

Encapsulation efficiency (%) [1] [%] | PDI [2] | Size (nm) [2] [nm] | Zeta potential (mV) (LNP zeta potential) | Compound | Relative Total flux (mice)
67.41 | 0.135 | 82.96 | −12.25 | CCCCCCCCC(C(=O)NCCCCCCCCCC(=O)OC(CCCCCC)CCCCCC)N(CCCN1CCCC1)C(=O)CCCCCCCCCC(=O)OC(CCCCCC)CCCCCC (stereo not shown) [Compound A1] | B (B: ≥1 and <2)
50.77 | 0.153 | 78.3 | −2.69 | CCCCCCCC(C(=O)NCCCCCCCCCC(=O)OC(CCCCCC)CCCCCC)N(CCCN1CCCC1)C(=O)CCCCCCCCCC(=O)OC(CCCCCC)CCCCCC (stereo not shown) [Compound A2] | C (C: ≥0.1 and <1)
– | – | – | – | CCCCCCCCC(C(=O)NCCCCCCCCCC(=O)OC(CCCC)CCCCCC)N(CCCN1CCCC1)C(=O)CCCCCCCCCC(=O)OC(CCCC)CCCCCC (stereo not shown) [Compound A3] | C (C: ≥0.1 and <1)
97.34 | 0.202 | 72.85 | 5.65 | CCCCCCCCC(CCCCCC)COC(=O)CCCCCCCCCNC(=O)C(CCCCCCCC)N(CCCN1CCCC1)C(=O)CCCCCCCCCC(=O)OCC(CCCCCC)CCCCCCCC (stereo not shown) [Compound A4] | D (D: <0.1.)
92.48 | 0.13 | 60.62 | −17.73 | CCCCCCCCC(C(=O)NCCCCCCCCCC(=O)OCCCCCC)N(CCCN1CCCC1)C(=O)CCCCCCCCCC(=O)OC(CCCCCC)CCCCCC (stereo not shown) [Compound A5] | D (D: <0.1.)
84.80 | 0.234 | 55.75 | −9.54 | CCCCCCCCC(C(=O)NCCCCCCCCCC(=O)OCCCCCC)N(CCCN1CCCC1)C(=O)CCCCCCCCCC(=O)OCCCCCC (stereo not shown) [Compound A6] | A (A: ≥2)
96.10 | 0.274 | 62.53 | 4.99 | CCCCCCCC(C(=O)NCCCCCCCCCC(=O)OC(CCCCCC)CCCCCC)N(CCCN1CCCC1)C(=O)CCCCCCCCCC(=O)OCC12CC3CC(CC(C3)C1)C2 (stereo not shown) [Compound A7] | C (C: ≥0.1 and <1)
– | – | – | – | CCCCC/C=C\C/C=C\CCCCCCCC(=O)N(CCCN1CCCC1)C(CCCCCCCCCCC)C(=O)NCCCCCCCCCCCCCC (stereo not shown) [Compound A22] | C (C: ≥0.1 and <1)
– | – | – | – | CCCCC/C=C\C/C=C\CCCCCCCC(=O)N(CCCCN1CCCC1)C(CCCCCCCCCCC)C(=O)NCCCCCCCCCCCCCC (stereo not shown) [Compound A24] | C (C: ≥0.1 and <1)
– | – | – | – | CCCCCCCCCCCCCCNC(=O)C(CCCCCCCCCCC)N(CCCCN1CCCC1)C(=O)CCCCCCC(=O)OC(CCCCCCCC)CCCCCCCC (stereo not shown) [Compound A25] | D (D: <0.1.)
– | – | – | – | CCCCCCCCNC(=O)C(CCCCCCCC)N(CCCCN1CCCC1)C(=O)CCCCCCC(=O)OC(CCCCCCCC)CCCCCCCC (stereo not shown) [Compound A37] | B (B: ≥1 and <2)
– | – | – | – | CCCCCCCCNC(=O)C(CCCCCCCC)N(CCN(CC)CC)C(=O)CCCCCCC(=O)OC(CCCCCCCC)CCCCCCCC (stereo not shown) [Compound A38] | A (A: ≥2)
– | – | – | – | CCCCCCCCNC(=O)C(CCCCCCCC)N(CC1CCCN(C)C1)C(=O)CCCCCCC(=O)OC(CCCCCCCC)CCCCCCCC (stereo not shown) [Compound A39] | A (A: ≥2)
– | – | – | – | CCCCCCCCC(CCCCCC)COC(=O)CCCCCNC(=O)C(CCCCC)N(CCCN(C)C)C(=O)CCCCCC(=O)OCC(CCCCCCCC)CCCCCCCC (stereo not shown) [Compound A43] | A (A: ≥2)
– | – | – | – | CCCCCCCCC(CCCCCC)COC(=O)CCCCCNC(=O)C(CCCCC)N(CCCCN(C)C)C(=O)CCCCCC(=O)OCC(CCCCCC)CCCCCCCC (stereo not shown) [Compound A44] | B (B: ≥1 and <2)
– | – | – | – | CCCCCCCCC(CCCCCCCC)OC(=O)CCCCCCC(=O)N(CCCN(C)C)C(CCCCCCCC)C(=O)NCCCCCC(=O)OCCC12CC3CC(CC(C3)C1)C2 (stereo not shown) [Compound A47] | A (A: ≥2)
– | – | – | – | CCCCCCCCC(C(=O)NCCCCCCCCCC(=O)OCCCCCC)N(CCCN(CO)CO)C(=O)CCCCCCCCCC(=O)OC(CCCCCC)CCCCCC (stereo not shown) [Compound B1] | A (A: ≥2)
– | – | – | – | CCCCCCCC(C(=O)NCCCCCCCCCC(=O)OC(CCCCCC)CCCCCC)N(CCN(C)CCO)C(=O)CCCCCCCCCC(=O)OC(CCCCCC)CCCCCC (stereo not shown) [Compound B9] | A (A: ≥2)
– | – | – | – | CCCCCCCCNC(=O)C(CCCCCCCC)N(CCCN(C)CCCO)C(=O)CCCCCCC(=O)OC(CCCCCCCC)CCCCCCCC (stereo not shown) [Compound B27] | B (B: ≥1 and <2)
– | – | – | – | CCCCCCCCNC(=O)C(CCCCCCCC)N(CCCN(CC)CCO)C(=O)CCCCCCC(=O)OC(CCCCCCCC)CCCCCCCC (stereo not shown) [Compound B28] | A (A: ≥2)
– | – | – | – | CCCCC/C=C\C/C=C\CCCCCCCCNC(=O)C(CCCCCCCC)N(CCCCCCCC/C=C\C/C=C\CCCCC)C(=O)CCCN(C)C (stereo not shown) [Compound C2] | B (B: ≥1 and <2)
– | – | – | – | CCCCC/C=C\C/C=C\CCCCCCCCNC(=O)C(CCCCCCCC)N(CCCCCCCC/C=C\C/C=C\CCCCC)C(=O)CCCN1CCCC1 (stereo not shown) [Compound C4] | B (B: ≥1 and <2)
– | – | – | – | CCCCC/C=C\C/C=C\CCCCCCCCNC(=O)C(CCCCCCCC)N(CCCCCCCC/C=C\C/C=C\CCCCC)C(=O)CCCN(C)CCO (stereo not shown) [Compound C6] | D (D: <0.1.)
– | – | – | – | CCCCC/C=C\C/C=C\CCCCCCCCNC(=O)C(CCCCCCCC)N(CCCCCCCC/C=C\C/C=C\CCCCC)C(=O)CCCN(CCO)CCO (stereo not shown) [Compound C7] | D (D: <0.1.)
– | – | – | – | CCCCCCCCC(C(=O)NCCCCCCCCCC(=O)OC(CCCCCC)CCCCCC)N(CCCCN1CCN(CCCN(C(=O)CCCCCCCCCC(=O)OC(CCCCCC)CCCCCC)C(CCCCCCCC)C(=O)NCCCCCCCCCC(=O)OC(CCCCCC)CCCCCC)CC1)C(=O)CCCCCCCCCOC(=O)C(CCCCCC)CCCCCC (stereo not shown) [Compound D3] | C (C: ≥0.1 and <1)
– | – | – | – | CCCCCCCCC(C(=O)NCCCCCCCCCC(=O)OC(CCCCCC)CCCCCC)N(CCN(C)CCN(C(=O)CCCCCCCCCC(=O)OC(CCCCCC)CCCCCC)C(CCCCCCCC)C(=O)NCCCCCCCCCC(=O)OC(CCCCCC)CCCCCC)C(=O)CCCCCCCCCC(=O)OC(CCCCCC)CCCCCC (stereo not shown) [Compound D6] | A (A: ≥2)

Compound | Encapsulation efficiency (%) [1] [%] | PDI [2] | Size (nm) [2] [nm] | Zeta potential (mV) (LNP zeta potential) | Relative Total flux (mice)
CCCCCCCCC(CCCCCC)C(=O)OCCCCCCN(CCCCO)CCCCCCOC(=O)C(CCCCCC)CCCCCCCC (stereo not shown) [ALC-0315] | 93.27 | 0.082 | 70.12 | −0.76 | A (A: ≥2)
